Results published in patent US9850256B2, “Antibacterial basic biaromatic derivatives with aminoalkoxy substitution” (priority 2014, dated 2017).
In brackets after ≈: the same amount, converted by molar mass.

What was measured:
Test in all cases: Bacterial growth minimal inhibitory concentration (microdilution, cation-adjusted Mueller-Hinton Broth)
K. pneumoniae T6474 = assay type: cell-based, Klebsiella pneumoniae; settings: Klebsiella pneumoniae, T6474; multiply-resistant strain (penicillin-, cephalosporin- and quinolone-resistant)
Procedure: (§1) Minimal Inhibitory Concentrations (MICs; mg/L) were determined in cation-adjusted Mueller-Hinton Broth by a microdilution method following the description given in “Methods for Dilution Antimicrobial Susceptibility Tests for Bacteria that Grow Aerobically”, Approved standard, 7th ed., Clinical and Laboratory Standards Institute (CLSI) Document M7-A7, Wayne, Pa., USA (2006).
(§2) All Example compounds were tested against several Gram positive and Gram negative bacteria. […] Staphylococcus aureus A798 is a multiply-resistant strain (methicillin- and quinolone-resistant), Klebsiella pneumoniae T6474 is a multiply-resistant strain (penicillin-, cephalosporin- and in particular quinolone-resistant), while E. coli ATCC25922 and Pseudomonas aeruginosa ATCC 27853 are quinolone-sensitive strains.

P. aeruginosa ATCC 27853 = assay type: cell-based, Pseudomonas aeruginosa; settings: Pseudomonas aeruginosa, ATCC27853; quinolone-sensitive strain
Procedure: as §1, §2

S. aureus A798 = assay type: cell-based, Staphylococcus aureus; settings: Staphylococcus aureus, A798; multiply-resistant strain (methicillin- and quinolone-resistant)
Procedure: as §1, §2

E. coli ATCC25922 = assay type: cell-based; settings: Escherichia coli, ATCC25922; quinolone-sensitive strain
Procedure: as §1, §2

Row | Compound | MIC (K. pneumoniae T6474) [µg/mL] | MIC (P. aeruginosa ATCC 27853) [µg/mL] | MIC (S. aureus A798) [µg/mL] | MIC (E. coli ATCC25922) [µg/mL]
1 | NCCOc1ccnc(-c2ccnc(CNCC[C@H]3CN(c4ccc5c(n4)NC(=O)CO5)C(=O)O3)c2)c1 [Example $157, 6-[(S)-5-(2-{[4-(2-amino-ethoxy)-[2,4′]bipyridinyl-2′-ylmethyl]-amino}-ethyl)-2-oxo-oxazolidin-3-yl]-4H-pyrido[3,2-b][1,4]oxazin-3-one] | 16 (≈ 31.6 µM) | 1 (≈ 1.98 µM) | 8 (≈ 15.8 µM) | 4 (≈ 7.91 µM)
2 | CC(C)N1CCC(Oc2cccc(-c3cccc(CNCC[C@H]4CN(c5ccc6c(n5)NC(=O)CO6)C(=O)O4)c3)n2)C1 (mixture of isomers) [Example $134, 6-[(S)-5-(2-{3-[6-((RS)-1-isopropyl-pyrrolidin-3-yloxy)-pyridin-2-yl]-benzylamino}-ethyl)-2-oxo-oxazolidin-3-yl]-4H-pyrido[3,2-b][1,4]oxazin-3-one] | 4 | 4 | 0.5 | 2
3 | O=C1COc2ccc(N3C[C@@H](CCNCc4cccc(-c5cccc(OC[C@@H]6CCN6)n5)c4)OC3=O)nc2N1 [Example $151, 6-[(R)-5-(2-{3-[6-((S)-1-azetidin-2-ylmethoxy)-pyridin-2-yl]-benzylamino}-ethyl)-2-oxo-oxazolidin-3-yl]-4H-pyrido[3,2-b][1,4]oxazin-3-one] | 2 (≈ 3.77 µM) | 1 (≈ 1.88 µM) | 4 (≈ 7.54 µM) | 2 (≈ 3.77 µM)
4 | C[C@@H](N)COc1cccc(-c2cccc(CNCC[C@H]3CN(c4ccc5c(n4)NC(=O)CO5)C(=O)O3)c2)n1 [Example 17, 6-[(S)-5-(2-{3-[6-((R)-2-amino-propoxy)-pyridin-2-yl]-benzylamino}-ethyl)-2-oxo-oxazolidin-3-yl]-4H-pyrido[3,2-b][1,4]oxazin-3-one] | 2 (≈ 3.86 µM) | 1 (≈ 1.93 µM) | 0.5 (≈ 0.964 µM) | 1 (≈ 1.93 µM)
5 | CN1CC[C@@H](COc2cccc(-c3cccc(CNCC[C@H]4CN(c5ccc6c(n5)NC(=O)CO6)C(=O)O4)c3)n2)C1 [Example $140, 6-[(S)-5-(2-{3-[6-((R)-1-methyl-pyrrolidin-3-ylmethoxy)-pyridin-2-yl]-benzylamino}-ethyl)-2-oxo-oxazolidin-3-yl]-4H-pyrido[3,2-b][1,4]oxazin-3-one] | 2 (≈ 3.58 µM) | 2 (≈ 3.58 µM) | 0.5 (≈ 0.895 µM) | 2 (≈ 3.58 µM)
6 | NCCOc1cc(-c2cccc(CNCC[C@H]3CN(c4ccc5c(n4)NC(=O)CO5)C(=O)O3)c2)ccn1.O=CO [Example 19, 6-[(S)-5-(2-{3-[2-(2-amino-ethoxy)-pyridin-4-yl]-benzylamino}-ethyl)-2-oxo-oxazolidin-3-yl]-4H-pyrido[3,2-b][1,4]oxazin-3-one formate] | 4 | 1 | 8 | 1
7 | O=C1COc2ccc(N3C[C@H](CCNCc4cccc(-c5cccc(OC6CCCNC6)n5)c4)OC3=O)nc2N1.O=CO (mixture of isomers) [Example $111, 6-[(S)-2-oxo-5-(2-{3-[6-((RS)-piperidin-3-yloxy)-pyridin-2-yl]-benzylamino}-ethyl)-oxazolidin-3-yl]-4H-pyrido[3,2-b][1,4]oxazin-3-one formate] | 2 | 2 | 1 | 2
8 | O=C1COc2ccc(N3C[C@H](CCNCc4cccc(-c5nccc(O[C@@H]6CCNC6)n5)c4)OC3=O)nc2N1 [Example $115, 6-[(S)-2-oxo-5-(2-{3-[4-((R)-pyrrolidin-3-yloxy)-pyrimidin-2-yl]-benzylamino}-ethyl)-oxazolidin-3-yl]-4H-pyrido[3,2-b][1,4]oxazin-3-one] | 16 (≈ 30.1 µM) | 2 (≈ 3.76 µM) | 4 (≈ 7.52 µM) | 4 (≈ 7.52 µM)

Continued by falling MIC (K. pneumoniae T6474), values first:

Row | MIC (K. pneumoniae T6474) [µg/mL] | MIC (P. aeruginosa ATCC 27853) [µg/mL] | MIC (S. aureus A798) [µg/mL] | MIC (E. coli ATCC25922) [µg/mL] | Compound
9 | 2 (≈ 3.67 µM) | 2 (≈ 3.67 µM) | 0.5 (≈ 0.918 µM) | 1 (≈ 1.84 µM) | CN1CC[C@@H](Oc2cccc(-c3cccc(CNCC[C@H]4CN(c5ccc6c(n5)NC(=O)CO6)C(=O)O4)c3)n2)C1 [Example $120, 6-[(S)-5-(2-{3-[6-((R)-1-methyl-pyrrolidin-3-yloxy)-pyridin-2-yl]-benzylamino}-ethyl)-2-oxo-oxazolidin-3-yl]-4H-pyrido[3,2-b][1,4]oxazin-3-one]
10 | 2 (≈ 3.67 µM) | 1 (≈ 1.84 µM) | 0.5 (≈ 0.918 µM) | 1 (≈ 1.84 µM) | C[C@@H]1CNC[C@H]1Oc1cccc(-c2cccc(CNCC[C@H]3CN(c4ccc5c(n4)NC(=O)CO5)C(=O)O3)c2)n1 (relative stereo) [Example $173, 6-[(S)-5-(2-{3-[6-((3S*,4R*)-4-methyl-pyrrolidin-3-yloxy)-pyridin-2-yl]-benzylamino}-ethyl)-2-oxo-oxazolidin-3-yl]-4H-pyrido[3,2-b][1,4]oxazin-3-one]
11 | 2 | 2 | 0.25 | 1 | O=C1COc2ccc(N3C[C@H](CCNCc4cccc(-c5cccc(OCC6COCCN6)n5)c4)OC3=O)nc2N1.O=CO (mixture of isomers) [Example $110, 6-[(S)-5-(2-{3-[6-((RS)-1-morpholin-3-ylmethoxy)-pyridin-2-yl]-benzylamino}-ethyl)-2-oxo-oxazolidin-3-yl]-4H-pyrido[3,2-b][1,4]oxazin-3-one formate]
12 | 1 (≈ 1.83 µM) | 1 (≈ 1.83 µM) | 0.25 (≈ 0.458 µM) | 0.5 (≈ 0.916 µM) | CN1CC[C@H](Oc2cccc(-c3ccnc(CNCC[C@H]4CN(c5ccc6c(n5)NC(=O)CO6)C(=O)O4)c3)n2)C1 [Example $128, 6-[(S)-5-(2-{[6-((S)-1-methyl-pyrrolidin-3-yloxy)-[2,4′]bipyridinyl-2′-ylmethyl]-amino}-ethyl)-2-oxo-oxazolidin-3-yl]-4H-pyrido[3,2-b][1,4]oxazin-3-one]
13 | 1 | 1 | 0.125 | 0.5 | C[C@@H]1[C@H](Oc2cccc(-c3cccc(CNCC[C@H]4CN(c5ccc6c(n5)NC(=O)CO6)C(=O)O4)c3)n2)CN1C (mixture of isomers) [Example $178, 6-[(S)-5-(2-{3-[6-((2RS,3RS)-1,2-dimethyl-azetidin-3-yloxy)-pyridin-2-yl]-benzylamino}-ethyl)-2-oxo-oxazolidin-3-yl]-4H-pyrido[3,2-b][1,4]oxazin-3-one]
14 | 1 (≈ 1.83 µM) | 1 (≈ 1.83 µM) | 0.5 (≈ 0.916 µM) | 0.5 (≈ 0.916 µM) | CN1CC(Oc2cccc(-c3cccc(CNCC[C@@H]4CN(c5ccc6c(c5)NC(=O)CS6)C(=O)O4)c3)n2)C1 [Example $149, 6-[(R)-5-(2-{3-[6-(1-methyl-azetidin-3-yloxy)-pyridin-2-yl]-benzylamino}-ethyl)-2-oxo-oxazolidin-3-yl]-4H-benzo[1,4]thiazin-3-one]
15 | 1 (≈ 1.83 µM) | 2 (≈ 3.67 µM) | 0.25 (≈ 0.458 µM) | 1 (≈ 1.83 µM) | CN1CC[C@H](Oc2cccc(-c3cc(CNCC[C@H]4CN(c5ccc6c(n5)NC(=O)CO6)C(=O)O4)ccn3)n2)C1 [Example $139, 6-[(S)-5-(2-{[6′-((S)-1-methyl-pyrrolidin-3-yloxy)-[2,2′]bipyridinyl-4-ylmethyl]-amino}-ethyl)-2-oxo-oxazolidin-3-yl]-4H-pyrido[3,2-b][1,4]oxazin-3-one]
16 | 1 (≈ 1.87 µM) | 1 (≈ 1.87 µM) | 0.5 (≈ 0.935 µM) | 0.5 (≈ 0.935 µM) | COc1cc(OCCN)cc(-c2cccc(CNCC[C@H]3CN(c4ccc5c(n4)NC(=O)CO5)C(=O)O3)c2)n1 [Example $161, 6-[(S)-5-(2-{3-[4-(2-amino-ethoxy)-6-methoxy-pyridin-2-yl]-benzylamino}-ethyl)-2-oxo-oxazolidin-3-yl]-4H-pyrido[3,2-b][1,4]oxazin-3-one]
